Experimental data: EPA's ToxRefDB 2

Key:
dog [1] = conditions: Subchronic oral toxicity in nonrodent, beagle, Feed, dose end: 13 week, group: systemic, systemic / pathology microscopic / stomach / [other]
rat [2] = conditions: Multigenerational reproductive toxicity study, other, Oral, Feed, dose end: 2 generation
rat [3] = conditions: Subchronic oral toxicity in rodents, other, Feed, dose end: 3 month, group: systemic
mouse [4] = conditions: Carcinogenicity, cd1, Oral, Feed, dose end: 18 month, group: systemic
rabbit = conditions: Prenatal developmental toxicity study, new zealand white, Oral, Gavage/Intubation, dose end: 19 GD
dog [5] = conditions: Chronic toxicity, beagle, Oral, Feed, dose end: 52 week, group: systemic
mouse [6] = conditions: Carcinogenicity, cd1, Oral, Feed, dose end: 24 month, group: systemic
rat [7] = conditions: Combined chronic toxicity/carcinogenicity, sprague dawley, Oral, Feed, dose end: 24 month, group: systemic
mouse [8] = conditions: Subchronic oral toxicity in rodents, cd1, Feed, dose end: 17 week, group: systemic, systemic / organ weight / liver / absolute + systemic / organ weight / liver / relative to body weight + systemic / organ weight / liver / …
mouse [9] = conditions: Subchronic oral toxicity in rodents, cd1, Feed, dose end: 13 week, group: systemic, systemic / pathology microscopic / liver / hypertrophy + systemic / pathology microscopic / liver / necrosis + systemic / pathology …
rat [10] = conditions: Prenatal developmental toxicity study, sprague dawley, Oral, Gavage/Intubation, dose end: 15 GD
mouse [11] = conditions: Subchronic oral toxicity in rodents, cd1, Feed, dose end: 13 week, group: systemic
rat [12] = conditions: Prenatal developmental toxicity study, sprague dawley, Oral, Gavage/Intubation, dose end: 15 GD; remark: listed apart in the source
[13] = group: offspring, systemic / in life observation / body weight / offspring (pup) weight + systemic / pathology microscopic / liver / hypertrophy
[14] = group: offspring, systemic / in life observation / body weight / offspring (pup) weight + systemic / pathology microscopic / liver / hypertrophy + …
[15] = group: parental, systemic / pathology microscopic / liver / hypertrophy
[16] = group: parental, systemic / pathology microscopic / liver / hypertrophy + systemic / in life observation / food consumption / food consumption + systemic / …
[17] = group: reproductive, reproductive / offspring survival early / litter size / litter size + reproductive / offspring survival early / birth index / live birth …
[18] = systemic / in life observation / body weight / body weight gain
[19] = systemic / pathology microscopic / liver / hypertrophy + systemic / organ weight / liver / absolute + systemic / organ weight / liver / …
[20] = group: developmental, developmental / developmental malformation / bone / full supernumerary
[21] = group: maternal, systemic / in life observation / body weight / body weight gain + systemic / in life observation / food consumption / food consumption
[22] = group: maternal, systemic / in life observation / body weight / body weight gain + systemic / in life observation / food consumption / food consumption + …
[23] = systemic / pathology microscopic / mammary gland / hypertrophy
[24] = systemic / pathology microscopic / stomach / hyperemia
[25] = systemic / pathology microscopic / liver / lesion(s) (nos) + systemic / organ weight / liver / nos
[26] = systemic / in life observation / body weight / body weight gain + systemic / pathology microscopic / liver / hypertrophy + systemic / …
[27] = group: developmental, developmental / developmental malformation / bone / short + developmental / developmental malformation / bone / unossified + developmental…
[28] = systemic / pathology microscopic / liver / hypertrophy + systemic / pathology microscopic / liver / necrosis + systemic / pathology …
[29] = group: developmental, developmental / developmental malformation / mouth / jaw / cleft palate + systemic / in life observation / body weight / fetal weight
[30] = group: maternal, systemic / in life observation / body weight / body weight gain + systemic / in life observation / clinical signs / ataxia + systemic / in …

Question: Which results are given for `CCCC1COC(Cn2cncn2)(c2ccc(Cl)cc2Cl)O1` (configuration not stated) [Propiconazole]?
Answer: LEL (dog [1]): 6.25 mg/kg/day; LOAEL (dog [1]): 6.25 mg/kg/day; NEL (dog [1]): 1.25 mg/kg/day; NOAEL (dog [1]): 1.25 mg/kg/day; NEL (rat [2]; [13]): 48 mg/kg/day; NOAEL (rat [2]; [13]): 48 mg/kg/day; LEL (rat [2]; [14]): 238 mg/kg/day; LOAEL (rat [2]; [14]): 238 mg/kg/day; LEL (rat [2]; [15]): 42 mg/kg/day; LOAEL (rat [2]; [15]): 42 mg/kg/day; NEL (rat [2]; [16]): 8 mg/kg/day; NOAEL (rat [2]; [16]): 8 mg/kg/day; LEL (rat [2]; [17]): 238 mg/kg/day; LOAEL (rat [2]; [17]): > 238 mg/kg/day; NEL (rat [2]; [17]): 48 mg/kg/day; NOAEL (rat [2]; [17]): ≥ 238 mg/kg/day; LEL (rat [3]; [18]): 16.8 mg/kg/day; LOAEL (rat [3]; [18]): 77.6 mg/kg/day; NEL (rat [3]; [18]): < 16.8 mg/kg/day; NOAEL (rat [3]; systemic / in life observation / body weight / body weight gain + systemic / clinical chemistry / alkaline phosphatase (alp/alk) / alkaline …): 16.8 mg/kg/day; LOAEL (mouse [4]; systemic / pathology microscopic / liver / hypertrophy + systemic / in life observation / body weight / body weight gain): 59 mg/kg/day; LEL (mouse [4]; systemic / pathology microscopic / liver / hypertrophy + systemic / in life observation / body weight / body weight gain + systemic / organ …): 59 mg/kg/day; NEL (mouse [4]; [19]): 11 mg/kg/day; NOAEL (mouse [4]; [19]): 11 mg/kg/day; LEL (rabbit; [20]): 400 mg/kg/day; LOAEL (rabbit; [20]): > 400 mg/kg/day; NEL (rabbit; [20]): 250 mg/kg/day; NOAEL (rabbit; [20]): ≥ 400 mg/kg/day; LEL (rabbit; [21]): 250 mg/kg/day; LOAEL (rabbit; [21]): 250 mg/kg/day; NEL (rabbit; [22]): 100 mg/kg/day; NOAEL (rabbit; [22]): 100 mg/kg/day; LEL (dog [5]; [23]): 1.9 mg/kg/day; NEL (dog [5]; [23]): 0.2 mg/kg/day; LOAEL (dog [5]; [24]): 8.4 mg/kg/day; NOAEL (dog [5]; [24]): 1.9 mg/kg/day; NEL (mouse [6]; systemic / organ weight / liver / nos + systemic / clinical chemistry / alanine aminotransferase (alt/sgpt) / alanine aminotransferase (alt/…): 10 mg/kg/day; LEL (mouse [6]; [25]): 49.4 mg/kg/day; LOAEL (mouse [6]; [25]): 49.4 mg/kg/day; NOAEL (mouse [6]; systemic / pathology microscopic / liver / lesion(s) (nos) + systemic / organ weight / liver / nos + systemic / pathology microscopic / …): 10 mg/kg/day; LEL (rat [7]; [26]): 96.4 mg/kg/day; LOAEL (rat [7]; [26]): 96.4 mg/kg/day; NOAEL (rat [7]; [26]): 18.1 mg/kg/day; NEL (rat [7]; systemic / organ weight / liver / nos): 18.1 mg/kg/day; LEL (mouse [8]): 65 mg/kg/day; LOAEL (mouse [8]): 65 mg/kg/day; NEL (mouse [8]): 2.7 mg/kg/day; NOAEL (mouse [8]): 2.7 mg/kg/day; LEL (mouse [9]): 65 mg/kg/day; LOAEL (mouse [9]): 65 mg/kg/day; NEL (mouse [9]): 2.7 mg/kg/day; NOAEL (mouse [9]): 2.7 mg/kg/day; LEL (rat [10]; [27]): 90 mg/kg/day; LOAEL (rat [10]; [27]): 90 mg/kg/day; NEL (rat [10]; [27]): 30 mg/kg/day; NOAEL (rat [10]; [27]): 30 mg/kg/day; LEL (rat [10]; [21]): 90 mg/kg/day; NEL (rat [10]; [22]): 30 mg/kg/day; NOAEL (rat [10]; [22]): 90 mg/kg/day; LOAEL (rat [10]; group: maternal, systemic / in life observation / clinical signs / ataxia + systemic / in life observation / clinical signs / lethargy + systemic / in life …): 300 mg/kg/day; LOAEL (mouse [11]; systemic / pathology microscopic / liver / hypertrophy): 65 mg/kg/day; LEL (mouse [11]; systemic / pathology microscopic / liver / hypertrophy + systemic / pathology microscopic / liver / necrosis): 65 mg/kg/day; NEL (mouse [11]; [28]): 2.7 mg/kg/day; NOAEL (mouse [11]; [28]): 2.7 mg/kg/day; LEL (rat [12]; [29]): 300 mg/kg/day; LOAEL (rat [12]; [29]): > 300 mg/kg/day; NEL (rat [12]; [29]): < 300 mg/kg/day; NOAEL (rat [12]; [29]): ≥ 300 mg/kg/day; LEL (rat [12]; [30]): 300 mg/kg/day; LOAEL (rat [12]; [30]): 300 mg/kg/day; NEL (rat [12]; [30]): < 300 mg/kg/day; NOAEL (rat [12]; [30]): < 300 mg/kg/day
